Experiments:
[1] = system: CXCR4 mRNA; assay: CXCR4 RNA expression in ARPE-19 cells by whole human genome array hybridization; type: cell-based; settings: for expression of intact intracellular CXCR4 RNA: cells uninduced with t-BH, compared to cells untreated with siRNA or given control siRNA, FIG. 3
Description: To isolate RNA from cells, 1 ml Qiazol® (a phenol/guanidinium isothiocyanate-based RNAse inhibitory lysis buffer sold by Qiagen, Inc.) was added to the ARPE-19 cells and the lysates then scraped into 2 ml tubes. 200 μl of chloroform per ml of Qiazol® was then added, the tubes mixed and centrifuged at 12,000×g for 15 minutes at 4° C. The aqueous phase was removed and applied to an RNeasy® mini column (Qiagen), washed and the column eluted with water. Five micrograms of the eluate were used for subsequent RT-PCR reactions. RT-PCR reactions were carried out using the Stratascript® First Strand Synthesis System (Stratagene). The RNA was denatured at 65° C. for 5 minutes, cooled at RT for 10 minutes then incubated at 42° C. for 60 minutes with reverse transcriptase.
A whole human genome DNA oligonucleotide array (Agilent Technnologies, G4112A array) was used to hybridize against RNA samples prepared from ARPE-19 cells treated with t-BH. This 44K slide format contains a collection of 60-mer oligonucleotides with sequences representing over 41 K human genes and transcripts.
RNA labeling was performed using the Low RNA Input Fluorescent Linear Amplification kit (LIK®) from Agilent Technologies (#5184-3523) following the manufacturer's recommendations. Briefly, 200 ng of total RNA from the ARPE-19 cells isolated as described in Example 2 were reverse transcribed in a 20 μL volume using with 1 μL Moloney Murine Leukemia Virus reverse transcriptase (MMLV-RT) and 1.2 μL of T7 promoter primer in 1× First Strand Buffer at 40° C. for 2 hours. From the double-stranded DNA preparation, transcription and direct labeling were prepared in 80 μL at 40° C. for 2 hours using 0.8 μL of T7 RNA polymerase, 0.6 μL inorganic pyrrophosphatase, 2.4 μL of each Cy-dye-CTP at 10 mM (PerkinElmer/NEN Life Sciences Cyanine-3-CTP #NEL580 and Cyanine-5-CTP #NEL581) in 4% PEG solution and 1× Transcription buffer. Cyanine dyes are highly sensitive fluorescent dyes.
Amplified and labeled cRNA was purified on Rneasy® mini columns (Qiagen, Inc.) according to manufacturer's protocol. cRNA was quantified by absorbance at 260 nm, 550 nm and 650 nm. Once labeling is complete, both Cy3 and Cy5 RNA samples are combined and hybridized to the microarray using the Agilent In Situ Hybridization kit (#5184-3568) following Agilent's recommendations.
Briefly 750 ng of cyanine 3-labeled linearly amplified cRNA and 750 ng of cyanine 5-labeled linearly amplified cRNA are combined to 1× control targets, 0.5× fragmentation buffer. This 2× target solution is denaturated at 60° C. for 30 minutes and 1× hybridization buffer in a 500 μL final volume is added to terminate the fragmentation reaction.
The target solution is then dispensed onto the 44K microarray. Incubation time was 17 hours at 60° C. in a hybridization oven with rotation at 4 rpm (Agilent Technologies #G2545A). Washes were performed for 5 minutes in 6×SSPE, 0.005% N-lauroyl sarcosine at room temperature, then for 5 minutes in 0.06×SSPE, 0.005% N-lauroyl sarcosine at room temperature, and finally for 30 seconds in Agilent Stabilization and Drying Solution®. The dried slides were scanned using a microarray scanner.
Total RNA was isolated from the cells (uninduced with t-BH) and the amount of CXCR4 RNA determined by gene array hybridization. The amount of CXCR4 in the naïve cells are standardized as “100%”.

[2] = system: ARPE-19 cells; assay: Oxidative stress/cell viability (WST) assay in ARPE-19 cells exposed to t-BH; type: cell-based
Description: ARPE 19 cells (American Type Tissue Collection (ATTC) Number CRL2302) were plated at a cell density of 6×10^4 cells per 10 cm tissue culture dish, in Delbecco's Modified Eagle's Medium (DMEM) F12 containing 10% fetal bovine serum (FBS) and 1% antibiotic/antimycotic solution (10,000 units of penicillin G (sodium salt), 10,000 μg/ml of streptomycin sulfate, and 25 μg/ml of amphotericin B in 0.85% saline) incubated at 37° C. overnight.
These oligonucleotides or control oligonucleotides (Stealth RNAi negative control Med GC (Invitrogen, Inc.)) were added in 1.5 ml of OptiMem® media (Gibco BRL) to a final concentration of 25 nM. In a separate equal volume of OptiMem® media, 15 μl of lipofectamine reagent (Lipofectamine® 2000, Invitrogen, Inc.) was similarly added to equal volume of OptiMem® media and incubated at room temperature for 5 minutes.
Both solutions were then mixed together and further incubated for 20 minutes at room temperature. The cells were washed once with OptiMem® media, the total volume of the mixture was brought up to 10 ml with OptiMem® media (Gibco BRL) and then added to the cells. Cells were permitted to incubate overnight at 37° C. 24 hours following transfection, the transfection mixture was removed and 10 ml of fresh DMEM F12 media added to the cells. […]
Cell viability was measured using the WST assay (Chemicon International, Inc.) according to the manufacturer's instructions. […] Thus, the formazan dye produced by viable cells can be quantified by a multiwell spectrophotometer (microplate reader) by measuring the absorbance of the dye solution at 440 nm.
In this case, 10 μl of WST-1 reagent was added to each well after 24 hours. The optimum assay development time was determined to be 1.5 hours. Plates were then read in a Spectramax M2 Platereader® at 450 nm. […]

[3] = system: exudative age related macular degeneration; assay: Treatment of a patient with exudative age related macular degeneration; type: in vivo, human
Description: A patient suffering from exudative age related macular degeneration in the right eye is given a subretinal injection of a biodegradable implant containing 1 μg total of equimolar amounts of oligonucleotide pair 4 (SEQ ID NO: 36 and SEQ ID NO: 37) in a volume of 100 μl. The eye is monitored weekly for 16 weeks.
A patient is diagnosed with exudative age-related macular degeneration.
The patient is given an subconjunctival injection of a solution containing 10 mg of 1,1′-[1,4,phenylene-bis(methylene)]-bis-1,4,8,11-tetraazacyclotetradecane (AMD3100), see Bridger et al., US2004/0209921, incorporated by reference herein) in each eye once every two weeks for 6 months. The patient is monitored bimonthly and visual acuity tested.

[4] = Example 8, subconjunctival 10 mg each eye every two weeks for 6 months

Pair 3: anti-CXCR4 siRNA, SEQ ID NO: 14 and SEQ ID NO: 15 (chain 1 CUUGGAGUGUGACAGCUUGGAGAUG; chain 2 CAUCUCCAAGCUGUCACACUCCAAG; listed as RNA, chemistry not given here)
expression of intact intracellular CXCR4 RNA [1]: reduce the expression of intact intracellular CXCR4 RNA

CC(C)(C)OO [t-BH, tertiary-butylhydroperoxide]
cells surviving for at least 24 hours ([2]; ARPE-19 cells exposed to t-BH for 3 hours, then non t-BH-containing media): approximately 70%
cell death ([2]; ARPE-19 cells exposed to t-BH for 6 hours): cell death by 24 hours
expression of CXCR4 RNA over baseline ([1]; ARPE-19 cells, immediately after six hours' incubation with t-BH): 30 fold
increase in expression of CXCR4 RNA over baseline ([1]; ARPE-19 cells, immediately after three hours' exposure to t-BH, untreated cells as baseline): 20 fold
reduction in CXCR4 expression after recovery ([1]; t-BH for three hours, then further three hours in t-BH-free medium): almost no reduction in CXCR4 expression
decrease in CXCR4 RNA after recovery ([1]; t-BH for three hours, then further twenty four hours in t-BH-free medium, versus levels immediately following exposure): approximately 35%

Pair 1: anti-CXCR4 double-stranded siRNA, SEQ ID NO: 10 and SEQ ID NO: 11 (chain 1 AACAGUGGAAGAAAGCUAGGGGCUC; chain 2 GAGGCCCUAGCUUUCUUCCACUGUU; listed as RNA, chemistry not given here)
inhibition of cell death induced by oxidative stress (WST cell viability) ([2]; ARPE-19 cells, 300 uM t-BH for 6 hours, siRNA at 10 nM or 25 nM, FIG. 2): inhibits the cell death induced by oxidative stress (exposure to 300 uM t-BH) in a dose-dependent fashion
expression of intact intracellular CXCR4 RNA [1]: reduce the expression of intact intracellular CXCR4 RNA

Pair 4: anti CXCR4 siRNA, SEQ ID NO: 36 and SEQ ID NO: 37 (chain 1 CCCACCAUCUACUCCAUCAUCUUCU; chain 2 AGAAGAUGAUGGAGUAGAUGGUGGG; listed as RNA, chemistry not given here)
extent of macular degeneration ([3]; Example 6, end of the 16 week period): no increase in the extent of macular degeneration is observed
improvement in visual acuity ([3]; Example 6, right eye, subretinal biodegradable implant, 1 μg total, by week 3, maintained for 16 weeks): two

Pair 2: anti-CXCR4 siRNA, SEQ ID NO: 12 and SEQ ID NO: 13 (chain 1 AACAGUGGAAGAAAGCUAGGGCCUC; chain 2 GAGGCCCUAGCUUUCUUCCACUGUU; listed as RNA, chemistry not given here)
expression of intact intracellular CXCR4 RNA [1]: reduce the expression of intact intracellular CXCR4 RNA

c1cc(CN2CCCNCCNCCCNCC2)ccc1CN1CCCNCCNCCCNCC1 [AMD3100, 1,1′-[1,4,phenylene-bis(methylene)]-bis-1,4,8,11-tetraazacyclotetradecane]
fluorescein angiography: leakage of blood into retinal tissues ([3]; Example 8, end of six-month treatment): no detectable leakage of blood into retinal tissues
visibly apparent extent of retinal degeneration ([3]; Example 8, end of six-month treatment versus beginning of study): no increase in the visibly apparent extent of retinal degeneration
increase in visual acuity, left eye [3, 4]: one
increase in visual acuity, right eye [3, 4]: two

Reference: patent US7964191B2, “Compositions and methods for the treatment of ophthalmic disease” (Allergan, Inc., priority 2006, dated 2011)
